Experimental data taken from patent US4929639A, “Oxygen-containing heterocyclic compound” (Fujisawa Pharmaceutical Company, Ltd., priority 1988, dated 1990).

Tested on: rabbit platelet
Experiment: Effect on 9,11-azo PGH2 induced aggregation of rabbit platelet in vitro
Type: cell-based
Conditions: Oryctolagus cuniculus, rabbit PRP, 9,11-azo PGH2 final 1.0 μM, 37° C., 2 minutes preincubation, read-out: IC50 (Inhibition concentration of platelet aggregation by 50%)
Excerpt: In the following tests, the used 9, 11-azo PGH2 and 9,11-methanoepoxy PGH2 (U46619) are characterized pharmacologically as TXA2 mimetic agents and widely used for evaluating TXA2 antagonism of test compounds (for example, vida The Journal of Pharmacology and Experimental Therapeutics Vol. 234, pp 435-441).
Test 1 (Effect on 9,11-azo PGH2 induced aggregation of rabbit platelet in vitro)
In the in vitro experiments, the blood was collected from the carotid artery of rabbits into plastic vessels containing 0.1 volume of 3.8% aqueous sodium citrate. Platelet rich plasma (PRP) was prepared by centrifugation at 150 g for 15 minutes. Platelet aggregation was investigated using the turbidometric method with an aggregometer (NKK HEMATRACER 1). To the 225 μl of PRP, 25 μl of test compound solution was added, and then stirred at 1000 rpm for 2 minutes at 37° C. To the solution, 5 μl of 9,11-azo PGH2 (final 1.0 μM) was added as an aggregating inducer. IC50 (Inhibition concentration of platelet aggregation by 50%) were graphically determined.

IC50: 0.26 µM
Structure (SMILES): C[C@@H]1OC[C@H](C/C=C\CCCC(=O)O)[C@H](C=NNC(=O)Nc2ccccc2)O1 [Test compound 2]
